Assays:
Format in all cases: in vivo
test plants = assay: Herbicidal action, post-emergence (Example B2), all test plants, result in words; settings: same protocol as Example B2, post-emergence
Protocol: Seeds of a variety of test species were sown in standard soil in pots. After 8 days cultivation (post-emergence) under controlled conditions in a glasshouse (at 24/16° C., day/night; 14 hours light; 65% humidity), the plants were sprayed with an aqueous spray solution derived from the formulation of the technical active ingredient in acetone/water (50:50) solution containing 0.5% Tween 20 (polyoxyethelyene sorbitan monolaurate, CAS RN 9005-64-5). The test plants were then grown in a glasshouse under controlled conditions in a glasshouse (at 24/16° C., day/night; 14 hours light; 65% humidity) and watered twice daily. After 13 days, the test was evaluated (10=total damage to plant; 0=no damage to plant).

Stellaria media = assay: Herbicidal action, post-emergence, seed trays in climatic chamber (Example B1); settings: 1000 g/ha, evaluated after 9 days, 10=total damage to plant, 0=no damage to plant
Protocol: (§1) Seeds of a variety of test species were sown in sterilised standard soil in seed trays each having 96 cells. […] The plants were grown in the climatic chamber after application at (24/19° C., day/night; 13 hours light; 50-60% humidity) and watered twice daily. After 9 days until the test was evaluated (10=total damage to plant, 0=no damage to plant)

Nasturtium officinale = assay: as above; settings: 1000 g/ha, evaluated after 9 days, 10=total damage to plant, 0=no damage to plant
Protocol: as §1

Amaranthus retroflexus = assay: as above; settings: 1000 g/ha, evaluated after 9 days, 10=total damage to plant, 0=no damage to plant
Protocol: as §1

Solanum nigrum = assay: as above; settings: 1000 g/ha, evaluated after 9 days, 10=total damage to plant, 0=no damage to plant
Protocol: as §1

Cc1cc2c(c(Cl)n1)c(OC(=O)C(C)(C)C)c(-c1c(F)ccc(F)c1Cl)c(=O)n2C [B5]
damage to the test plants (test plants): little or no damage

CCc1cc(C)cc(CC)c1-c1c(OC(=O)C(C)(C)C)c2cccnc2n(C)c1=O [D8]
STEME damage to plant (Stellaria media): 2
NAAOF damage to plant (Nasturtium officinale): 3
AMARE damage to plant (Amaranthus retroflexus): 0
SOLNI damage to plant (Solanum nigrum): 0

Cn1c(=O)c(-c2c(F)ccc(F)c2Cl)c(OC(=O)C(C)(C)C)c2cccnc21 [D9]
STEME damage to plant (Stellaria media): 2
NAAOF damage to plant (Nasturtium officinale): 2
AMARE damage to plant (Amaranthus retroflexus): 3
SOLNI damage to plant (Solanum nigrum): 0

CCc1cc(C)cc(CC)c1-c1c(OC(=O)C(C)C)c2cccnc2n(C)c1=O [D6, isobutyric acid 3-(2,6-diethyl-4-methyl-phenyl)-1-methyl-2-oxo-1,2-dihydro-[1,8]naphthyridin-4-yl ester]
STEME damage to plant (Stellaria media): 2
NAAOF damage to plant (Nasturtium officinale): 0
AMARE damage to plant (Amaranthus retroflexus): 0
SOLNI damage to plant (Solanum nigrum): 0

Cn1c(=O)c(-c2c(F)ccc(F)c2Cl)c(OC(=O)C(C)(C)C)c2cc(Br)cnc21 [D13, 2,2-dimethyl-propionic acid 6-bromo-3-(2-chloro-3,6-difluoro-phenyl)-1-methyl-2-oxo-1,2-dihydro-[1,8]naphthyridin-4-yl ester]
damage to the test plants (test plants): little or no damage

O=c1[nH]c2cccnc2c(O)c1-c1ccccc1OC(F)(F)F [A2]
STEME damage to plant (Stellaria media): 3
NAAOF damage to plant (Nasturtium officinale): 0
AMARE damage to plant (Amaranthus retroflexus): 0
SOLNI damage to plant (Solanum nigrum): 0

O=c1[nH]c2cccnc2c(O)c1-c1ccc(Cl)cc1Cl [A1]
STEME damage to plant (Stellaria media): 0
NAAOF damage to plant (Nasturtium officinale): 2
AMARE damage to plant (Amaranthus retroflexus): 0
SOLNI damage to plant (Solanum nigrum): 0

CC(C)(C)C(=O)Oc1c(-c2c(F)ccc(F)c2Cl)c(=O)[nH]c2ncncc12 [E1]
damage to the test plants (test plants): little or no damage

CC(C)C(=O)Oc1c(-c2c(F)ccc(F)c2Cl)c(=O)n(C)c2cccnc12 [A4]
STEME damage to plant (Stellaria media): 4
NAAOF damage to plant (Nasturtium officinale): 6
AMARE damage to plant (Amaranthus retroflexus): 5
SOLNI damage to plant (Solanum nigrum): 4

Cc1cc(Cl)c2c(OC(=O)C(C)(C)C)c(-c3c(F)ccc(F)c3Cl)c(=O)n(C)c2n1 [D19]
damage to the test plants (test plants): little or no damage

CCc1cc(C)cc(CC)c1-c1c(OC(=O)C(C)C)c2ncccc2n(C)c1=O [A6]
STEME damage to plant (Stellaria media): 8
NAAOF damage to plant (Nasturtium officinale): 6
AMARE damage to plant (Amaranthus retroflexus): 3
SOLNI damage to plant (Solanum nigrum): 6

CC(C)C(=O)Oc1c(-c2c(F)ccc(F)c2Cl)c(=O)n(C)c2ncccc12 [D7]
STEME damage to plant (Stellaria media): 3
NAAOF damage to plant (Nasturtium officinale): 0
AMARE damage to plant (Amaranthus retroflexus): 6
SOLNI damage to plant (Solanum nigrum): 0

CCn1c(=O)c(-c2c(F)ccc(F)c2Cl)c(OC(=O)C(C)(C)C)c2cnccc21 [B1, 2,2-dimethyl-propionic acid 3-(2-chloro-3,6-difluoro-phenyl)-1-ethyl-2-oxo-1,2-dihydro-[1,6]naphthyridin-4-yl ester]
damage to the test plants (test plants): little or no damage

Cn1c(=O)c(-c2c(F)ccc(F)c2Cl)c(O)c2ncccc21 [A3]
STEME damage to plant (Stellaria media): 3
NAAOF damage to plant (Nasturtium officinale): 4
AMARE damage to plant (Amaranthus retroflexus): 6
SOLNI damage to plant (Solanum nigrum): 3

O=c1[nH]c2cccnc2c(O)c1-c1cccnc1 [A7]
STEME damage to plant (Stellaria media): 6
NAAOF damage to plant (Nasturtium officinale): 2
AMARE damage to plant (Amaranthus retroflexus): 0
SOLNI damage to plant (Solanum nigrum): 0

Cn1c(=O)c(-c2c(F)ccc(F)c2Cl)c(O)c2cccnc21 [D5]
STEME damage to plant (Stellaria media): 7
NAAOF damage to plant (Nasturtium officinale): 6
AMARE damage to plant (Amaranthus retroflexus): 7
SOLNI damage to plant (Solanum nigrum): 0

Cn1c(=O)c(-c2c(F)ccc(F)c2Cl)c(OC(=O)C(C)(C)C)c2ncccc21 [A5]
STEME damage to plant (Stellaria media): 0
NAAOF damage to plant (Nasturtium officinale): 3
AMARE damage to plant (Amaranthus retroflexus): 0
SOLNI damage to plant (Solanum nigrum): 7

O=c1[nH]c2nncnc2c(O)c1-c1c(F)ccc(F)c1Cl [E4]
STEME damage to plant (Stellaria media): 0
NAAOF damage to plant (Nasturtium officinale): 0
AMARE damage to plant (Amaranthus retroflexus): 2
SOLNI damage to plant (Solanum nigrum): 4
